From paper PMC3776838, “Detection of Phospho-Sites Generated by Protein Kinase CK2 in CFTR: Mechanistic Aspects of Thr1471 Phosphorylation” (PLoS ONE, 2013)
Entries after “also recorded” stand apart in the source; their conditions may differ.

Assays:
CK2 = test system: CK2; parameters: method as in PMID 21870818; conditions: ref [43]; cited from earlier work
CFTR T1471A = test: De novo synthesized CFTR level after CHX wash-out with CK2 inhibitor, T1471A; assay type: cell-based, human; conditions: BHK cells; 2 h CHX 100 µg/mL, washed, then 2 µM CX4945 for 2, 4, 8 h; Western blot; vs vehicle; Figure 5B
Description: (§1) Baby hamster kidney cells (BHK) stably expressing human CFTR (hCFTR) either wild type (WT), or Phe508del, or WT T1471A were growth to reach 70–80% confluency. After 2 h-long treatment with 100 µg/mL cyclohexamide, cells were washed with PBS and incubated with 2 µM CX4945 or its vehicle for the indicated time. At each time-point cells were washed with ice-cold PBS, scraped from the plates, pelleted by centrifugation (1200 g for 5 min at room tempertaure) and lysed in a buffer containing 1% (v/v) Nonidet P40, 50 mM Tris/HCl (pH 7.5) and 150 mM NaCl with fresh protease inhibitor tablets (Roche), 1 µM Okadaic acid (Alexis) and phosphatases inhibitors cocktails 2 and 3 (Sigma). Cells were lysed by incubation on ice for 30 min and then the lysates were cleared by centrifugation at 17000 g for 30 min at 4°C. The supernatant was collected and subjected to protein concentration quantification.
(§2) Western blot analysis was performed as described in [14] using a modified Laemmli buffer containing 105 mM dithiothreitol (final concentration) to enhance the solubilization of CFTR. […] Immunoblots were developed by enhanced chemiluminescence, detected on Kodak Image Station 440 cf and analyzed by the Kodak 1D image software. […]

Phe508delCFTR = test: De novo synthesized CFTR level after CHX wash-out with CK2 inhibitor, Phe508del; assay type: cell-based, human; conditions: BHK cells, washed; for effect on de novo synthesis / accumulation of Phe508delCFTR: 2 h CHX 100 µg/mL, then 2 µM CX4945 for 2, 4, 8 h, Western blot, vs vehicle, Figure 5C
Description: as §1
Western blot analysis was performed as described in [14] using a modified Laemmli buffer containing 105 mM dithiothreitol (final concentration) to enhance the solubilization of CFTR. 20–30 µg of total proteins were separated on 4–12% precast NuPage® Bis-Tris gradient gels (Invitrogen) according to the manufacturer’s instructions and transferred on to Optitran BA-S 83 nitrocellulose membranes (Whatman) with a semi-dry blotter (Biometra) for 1 h at 150 mA. Membranes were saturated for 1 h with 5% skimmed milk in Tris-buffered saline (TBS) containing 0.2% Tween 20. Immunoblots were developed by enhanced chemiluminescence, detected on Kodak Image Station 440 cf and analyzed by the Kodak 1D image software. […]
In order to evaluate the efficacy of CX4945 on the level of de novo synthesized CFTR, protein synthesis was inhibited by two hours cell treatment with cycloheximide (CHX). Blockade was then removed by washing off CHX and newly synthesized CFTR was quantified after 2, 4, and 8 hrs incubation either in the absence or presence of CX4945. […] This point has been corroborated by performing the experiment in triplicate and drawing from it quantification of Phe508delCFTR band B, as reported in Panel D.

CFTR wild type = test: De novo synthesized CFTR level after CHX wash-out with CK2 inhibitor, wild type; assay type: cell-based, human; conditions: BHK cells, 2 h CHX 100 µg/mL, washed, then 2 µM CX4945 for 2, 4, 8 h, Western blot, vs vehicle, Figure 5A
Description: as §1, §2

O=C(O)c1ccc2c(c1)nc(Nc1cccc(Cl)c1)c1ccncc12 [CX4945]
selectivity for CK2 (CK2): the most selective CK2 inhibitor available to date | effect on de novo synthesis of CFTR T1471A (CFTR T1471A): a similar effect of CX4945 being also detectable; also recorded: a similar effect of CX4945 was observed with CFTR wild type and its T1471A mutant | effect on de novo synthesis / accumulation of Phe508delCFTR (Phe508delCFTR): the efficacy of inhibiting CK2 is enhanced | effect on de novo synthesis / accumulation of Phe508delCFTR (Phe508delCFTR; listed as CX-4945): definitely more pronounced in the case of Phe508delCFTR | increment of Phe508delCFTR band B (Phe508delCFTR; 2 h CHX, then 2 µM CX4945 vs vehicle, Western blot quantitation, experiments in triplicate, Figure 5D): two to three | effect on de novo synthesis / accumulation of CFTR wild type (CFTR wild type): accumulates more abundantly than in the absence of CK2 inhibitor; also recorded: de novo synthesis of CFTR wild type is significantly stimulated | effect on de novo synthesis / accumulation of CFTR wild type (CFTR wild type; listed as CX-4945): the re-appearance of CFTR reached higher levels
